From patent US8916565B2, “Pyrrolopyrazine-spirocyclic piperidine amides as modulators of ion channels” (priority 2011, dated 2014)

Biological target: human NaV subtype, like NaV 1.7 (Homo sapiens, UniProt Q15858)
Experiment: E-VIPR optical membrane potential assay with electrical stimulation
Type: cell-based
Details: active against one or more sodium channels; Table 3 does not name the assay or NaV subtype; read-out: Binned Activity Data (IC50)

human NaV subtype, like NaV 1.7, sequence (Q15858 whole entry): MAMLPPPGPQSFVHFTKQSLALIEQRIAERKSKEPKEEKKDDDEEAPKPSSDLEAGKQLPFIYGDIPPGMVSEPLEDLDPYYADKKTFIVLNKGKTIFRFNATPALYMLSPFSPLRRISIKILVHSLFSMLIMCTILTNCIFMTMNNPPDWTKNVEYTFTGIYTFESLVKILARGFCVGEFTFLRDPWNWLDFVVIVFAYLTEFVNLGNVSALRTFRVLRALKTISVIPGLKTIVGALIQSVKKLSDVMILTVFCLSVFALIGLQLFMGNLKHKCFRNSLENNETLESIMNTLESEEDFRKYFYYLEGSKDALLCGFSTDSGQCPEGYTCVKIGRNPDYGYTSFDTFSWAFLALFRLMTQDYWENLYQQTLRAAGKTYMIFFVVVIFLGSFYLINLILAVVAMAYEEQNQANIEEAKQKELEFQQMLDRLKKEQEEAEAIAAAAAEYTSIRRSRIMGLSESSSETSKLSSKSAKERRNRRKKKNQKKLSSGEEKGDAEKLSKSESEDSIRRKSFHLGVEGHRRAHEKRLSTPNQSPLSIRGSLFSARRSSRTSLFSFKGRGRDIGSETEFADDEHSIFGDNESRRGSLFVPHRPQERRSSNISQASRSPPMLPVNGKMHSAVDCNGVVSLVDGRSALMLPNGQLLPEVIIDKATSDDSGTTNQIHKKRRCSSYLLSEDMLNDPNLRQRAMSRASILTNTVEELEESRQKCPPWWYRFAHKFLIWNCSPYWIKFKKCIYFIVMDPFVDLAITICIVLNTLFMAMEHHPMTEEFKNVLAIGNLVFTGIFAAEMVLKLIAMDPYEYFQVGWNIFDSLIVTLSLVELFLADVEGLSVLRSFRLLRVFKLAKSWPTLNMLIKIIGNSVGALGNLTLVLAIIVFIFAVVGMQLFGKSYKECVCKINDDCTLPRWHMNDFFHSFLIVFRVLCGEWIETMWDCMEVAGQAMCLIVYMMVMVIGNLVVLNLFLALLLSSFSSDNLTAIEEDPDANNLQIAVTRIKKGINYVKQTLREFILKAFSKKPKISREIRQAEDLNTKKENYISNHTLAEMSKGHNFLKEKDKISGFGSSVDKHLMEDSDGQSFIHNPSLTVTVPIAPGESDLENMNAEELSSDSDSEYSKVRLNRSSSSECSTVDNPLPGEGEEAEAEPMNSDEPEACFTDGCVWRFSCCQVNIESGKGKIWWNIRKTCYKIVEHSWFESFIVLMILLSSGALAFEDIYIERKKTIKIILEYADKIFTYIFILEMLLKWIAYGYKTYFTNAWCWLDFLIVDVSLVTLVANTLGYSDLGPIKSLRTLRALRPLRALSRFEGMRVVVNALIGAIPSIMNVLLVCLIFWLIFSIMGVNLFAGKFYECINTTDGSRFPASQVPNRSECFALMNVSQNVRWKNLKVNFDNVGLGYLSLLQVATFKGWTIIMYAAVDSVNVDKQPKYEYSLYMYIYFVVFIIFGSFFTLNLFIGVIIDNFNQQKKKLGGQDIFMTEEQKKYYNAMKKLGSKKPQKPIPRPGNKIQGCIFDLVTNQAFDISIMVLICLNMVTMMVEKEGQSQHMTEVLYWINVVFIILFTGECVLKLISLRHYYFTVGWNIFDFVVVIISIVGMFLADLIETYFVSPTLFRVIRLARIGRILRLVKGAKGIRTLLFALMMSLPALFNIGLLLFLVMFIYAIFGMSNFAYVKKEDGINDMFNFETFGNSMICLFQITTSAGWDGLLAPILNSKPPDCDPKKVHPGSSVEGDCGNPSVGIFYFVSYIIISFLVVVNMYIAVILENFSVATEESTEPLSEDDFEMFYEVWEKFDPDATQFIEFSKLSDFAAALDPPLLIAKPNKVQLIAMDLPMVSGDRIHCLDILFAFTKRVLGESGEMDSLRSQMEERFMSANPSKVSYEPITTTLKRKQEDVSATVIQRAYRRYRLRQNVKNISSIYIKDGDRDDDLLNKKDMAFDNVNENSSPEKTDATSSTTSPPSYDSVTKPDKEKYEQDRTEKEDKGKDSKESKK

IC50 | Compound
≤ 2000 nM | Cc1cc(C(=O)N2CCC3(CC2)NC(C)Cn2c(C(F)(F)F)ccc23)ccc1OC(C)C (centres unmarked) [Compound 222]
2000 to 5000 nM | COc1ccc(C(=O)N2CCC3(CC2)c2ccc(C(=O)C(F)(F)F)n2C(C)(C)CN3C)cc1C [Compound 223]
> 5000 nM | CCCc1ccc(C(=O)N2CCC3(CC2)c2ccc(Cl)n2CCN3C)cc1 [Compound 224]
> 5000 nM | CC(=O)c1ccc2n1C(C)(C)CN(C)C21CCN(C(=O)c2ccc(C(C)(C)O)c(F)c2)CC1 [Compound 225]
≤ 2000 nM | CN1CCn2c(ccc2C(F)(F)C(F)(F)F)C12CCN(C(=O)c1ccc(CC(C)(C)O)c(F)c1)CC2 [Compound 226]
> 5000 nM | COc1cc(C(=O)N2CCC3(CC2)c2ccc(C(F)(F)F)n2CCN3C(=O)N(C)C)ccc1OC(C)C [Compound 227]
≤ 2000 nM | CN1CCn2c(C(F)(F)F)cc(Cl)c2C12CCN(C(=O)c1ccc(C3(O)CCC3)cc1)CC2 [Compound 228]
2000 to 5000 nM | CCCOc1cc(C(=O)N2CCC3(CC2)c2ccc(Cl)n2CCN3C)ccc1OC [Compound 229]
≤ 2000 nM | COc1cc(C(=O)N2CCC3(CC2)c2ccc(C(C)=O)n2CCN3C)ccc1OCC(C)C [Compound 230]
> 5000 nM | Cc1cc(C(=O)N2CCC3(CC2)c2cc(C(=O)C(F)(F)F)cn2C(C)(C)CN3C)ccc1OC(C)C [Compound 231]
≤ 2000 nM | CC(C)Oc1ccc(C(=O)N2CCC3(CC2)NC(C)(C)Cn2c(C(=O)C(F)(F)F)ccc23)cc1F [Compound 232]
≤ 2000 nM | CC(C)Oc1ccc(C(=O)N2CCC3(CC2)c2ccc(C(=O)C(F)(F)F)n2CCN3C)cc1 [Compound 233]
> 5000 nM | COc1cc(C(=O)N2CCC3(CC2)c2ccc(Cl)n2CCN3C)ccc1OC(C)C [Compound 234]
≤ 2000 nM | Cc1cc(C(=O)N2CCC3(CC2)NCC(C)n2c(C(=O)C(F)(F)F)ccc23)ccc1C(C)(C)O (centres unmarked) [Compound 235]
≤ 2000 nM | Cc1cc(C(=O)N2CCC3(CC2)c2ccc(C(=O)C(F)(F)F)n2CCN3C)ccc1-c1cccc(Cl)c1 [Compound 236]
≤ 2000 nM | CN1CCn2c(C(=O)C(F)(F)F)ccc2C12CCN(C(=O)c1ccc(COCCC(F)(F)F)cc1)CC2 [Compound 237]
≤ 2000 nM | Cc1cc(C(=O)N2CCC3(CC2)c2ccc(C(=O)C(F)(F)F)n2CCN3C)cc(C)c1O [Compound 238]
> 5000 nM | COc1ccc(C(=O)N2CCC3(CC2)c2cc(C(=O)C(F)(F)F)cn2C(C)(C)CN3C)cc1C [Compound 239]
≤ 2000 nM | COc1ccc(C(=O)N2CCC3(CC2)c2ccc(C(=O)C(F)(F)F)n2C(C)CN3C)cc1C(F)(F)F (centres unmarked) [Compound 240]
> 5000 nM | CCCCOc1cc(C(=O)N2CCC3(CC2)NCCn2c(C(F)(F)F)ccc23)ccc1OC [Compound 241]
≤ 2000 nM | CN1CCn2c(C(F)(F)F)cc(F)c2C12CCN(C(=O)c1ccc(C3(O)CCC3)cc1)CC2 [Compound 242]
≤ 2000 nM | CC(C)Oc1ccc(C(=O)N2CCC3(CC2)c2ccc(C(=O)C(C)(C)C)n2CCN3C)cc1Cl [Compound 243]
≤ 2000 nM | CN1CCn2c(C(F)(F)F)ccc2[C@]12CCN(C(=O)c1ccc(S(=O)(=O)NC3CC3)cc1)C[C@H]2F [Compound 244]
≤ 2000 nM | COCCOc1ccc(C(=O)N2CCC3(CC2)c2ccc(C(F)(F)C(F)(F)F)n2CCN3C)cc1OC [Compound 245]
> 5000 nM | CC(=O)c1ccc2n1CCN(C)C21CCN(C(=O)c2ccc(S(=O)(=O)C(C)C)c(C)c2)CC1 [Compound 246]
≤ 2000 nM | COc1cc(C(=O)N2CCC3(CC2)N[C@H]2CCCC[C@H]2n2cccc23)ccc1OCCC(C)C [Compound 247]
≤ 2000 nM | Cc1cc(C(F)F)n2ncc(C(=O)N3CCC4(CC3)c3ccc(C(=O)C(C)(C)C)n3CCN4C)c2n1 [Compound 248]

IC50 | Compound
≤ 2000 nM | Cc1cc(C(=O)N2CCC3(CC2)c2c(F)cc(C(F)(F)F)n2CCN3C)ccc1OCCCO [Compound 249]
≤ 2000 nM | CC(C)Oc1ccc(C(=O)N2CCC3(CC2)c2ccc(Cl)n2CCN3C)cc1Cl [Compound 250]
≤ 2000 nM | CN1CCn2c(C(=O)C(C)(C)C)ccc2C12CCN(C(=O)c1ccc(C(C)(C)O)c(F)c1)CC2 [Compound 251]
> 5000 nM | COc1ccc(C(=O)N2CCC3(CC2)c2ccc(C(=O)C(F)(F)F)n2C[C@@H](C)N3C)cc1Cl [Compound 252]
≤ 2000 nM | CN1CCn2c(ccc2C(F)(F)C(F)(F)F)C12CCN(C(=O)c1ccc(C(C)(C)O)c(F)c1)CC2 [Compound 253]
≤ 2000 nM | CC1(C)Cn2c(C(=O)C(F)(F)F)ccc2C2(CCN(C(=O)c3ccc(C(C)(C)O)c(F)c3)CC2)N1 [Compound 254]
≤ 2000 nM | COc1ccc(C(=O)N2CCC3(CC2)c2c(F)cc(C(F)(F)F)n2CCN3C)cc1C(F)(F)F [Compound 255]
> 5000 nM | Cc1cc(C(=O)N2CCC3(CC2)NC(C)(C)Cn2cc(F)c(F)c23)ccc1OC(C)C [Compound 256]
≤ 2000 nM | CN1CCn2c(C(F)(F)F)ccc2C12CCN(C(=O)c1ccc(S(=O)(=O)C3CC3)cc1)CC2 [Compound 257]
≤ 2000 nM | COc1cc(C(=O)N2CCC3(CC2)c2c(Cl)cc(C(F)(F)F)n2CCN3C)ccc1OCC(C)(C)F [Compound 258]
≤ 2000 nM | COC(=O)N1CCn2c(C(F)(F)F)ccc2C12CCN(C(=O)c1ccc(OC(C)C)c(OC)c1)CC2 [Compound 259]
2000 to 5000 nM | CC(=O)c1ccc2n1CCN(C)C21CCN(C(=O)c2ccc(Cc3ccccc3)cc2)CC1 [Compound 260]
≤ 2000 nM | Cc1nc(C(=O)N2CCC3(CC2)c2c(Cl)cc(C(F)(F)F)n2CCN3C)ccc1OC(C)C [Compound 261]
≤ 2000 nM | Cc1cc(C(=O)N2CCC3(CC2)c2c(F)cc(C(F)(F)F)n2CCN3C)ccc1C(C)(C)O [Compound 262]
≤ 2000 nM | Cc1cc(C(=O)N2CCC3(CC2)c2ccc(C(F)(F)F)n2CCN3C)ccc1OCC(C)(C)O [Compound 263]
≤ 2000 nM | COc1c(F)cccc1C(=O)N1CCC2(CC1)c1ccc(C(=O)C(F)(F)F)n1C[C@H](C)N2C [Compound 264]
≤ 2000 nM | Cc1cc(C(=O)N2CCC3(CC2)NCCn2c(C(F)(F)F)ccc23)ccc1S(=O)(=O)N(C)C [Compound 265]
≤ 2000 nM | Cc1cc(C(=O)N2CCC3(CC2)c2ccc(C(=O)C(F)(F)F)n2CCN3C)ccc1C(C)(C)O [Compound 266]
2000 to 5000 nM | CN1CCn2c(C(=O)C3(C)CC3)ccc2C12CCN(C(=O)c1ccc(C(C)(C)O)cc1)CC2 [Compound 267]
> 5000 nM | CC(=O)c1ccc2n1CCN(C)C21CCN(C(=O)c2ccc(S(=O)(=O)C(F)F)cc2)CC1 [Compound 268]
≤ 2000 nM | COCCN1CCn2cccc2C12CCN(C(=O)c1ccc(OC(C)C)c(C)c1)CC2 [Compound 269]
≤ 2000 nM | CC(C)Oc1ccc(C(=O)N2CCC3(CC2)NC(C)(C)Cn2c(C(=O)C(F)(F)F)ccc23)cc1Cl [Compound 270]
> 5000 nM | CN1CCn2c(C(=O)C(F)(F)F)ccc2C12CCN(C(=O)c1ccc(Cl)c(O)c1)CC2 [Compound 271]
2000 to 5000 nM | CN1CCn2c(C(F)(F)F)ccc2C12CCN(C(=O)c1ccccc1OC(F)(F)F)CC2 [Compound 272]
2000 to 5000 nM | CC(C)Oc1ccc(C(=O)N2CCC3(CC2)NCCn2c(C(F)(F)F)ccc23)cc1 [Compound 273]
≤ 2000 nM | CN1CCn2c(C(=O)C(C)(C)C)ccc2C12CCN(C(=O)c1ccc(S(=O)(=O)NC3CC3)cc1)CC2 [Compound 274]
